A short description of data set [1]: Stability study of budesonide HFA solution formulation in anodized aluminium cans at 40° C. and 75% relative humidity. The data set is classed as physicochemical. As for the experimental part:
A formulation for delivering a nominal dose of 200 μg of budesonide per actuation was prepared and filled in anodized aluminium canisters fitted with a metering valve having a 50 μl metering chamber.
A stability study was carried out by storing the formulation in upright (Up) and inverted (Inv) cans at 40° C. and 75% relative humidity. After three months of storage under these conditions the percent recovery of the active ingredient was very good. At the same time, the addition of small quantities of phosphoric acid appears to reduce the main oxidation degradation product, which is the 21-aldehyde content of the budesonide formulation.

Data set [2] is described as follows: TA 2005 stability in presence of sulphuric acid, upright Teflon-coated cans at 40° C. The data set is classed as physicochemical. Conditions: 0.075 M sulphuric acid in a concentration of 0.0018 to 0.0054% w/w. On the procedure:
A formulation of 8-hydroxy-5-[(1R)-1-hydroxy-2-[[(1R)-2-(4-methoxyphenyl)-1-methyl ethyl]amino]ethyl]-2(1H)-quinolinone hydrochloride (TA 2005) for delivering a nominal dose of 1 μg of active ingredient per actuation, was prepared with the following formulation: […]
The formulation (120 actuations/canister, overage of 30 actuations) was filled in aluminium canisters having the internal surface coated with Teflon and fitted with a metering valve having a 63 μl metering chamber.
A stability study was carried out by storing the formulation in upright cans at 40° C. The percent recovery of the active ingredient after one month of storage under these conditions is reported in the following: […]

For `CCCC1O[C@@H]2C[C@H]3[C@@H]4CCC5=CC(=O)C=C[C@]5(C)[C@H]4[C@@H](O)C[C@]3(C)[C@]2(C(=O)CO)O1` (some centres unmarked) [Budesonide, budesonide], in data set [1], the “effect of small quantities of phosphoric acid on 21-aldehyde content (main oxidation degradation product)” value was “reduce”. As to `COc1ccc(C[C@@H](C)NC[C@H](O)c2ccc(O)c3[nH]c(=O)ccc23)cc1.Cl` [TA 2005, 8-hydroxy-5-[(1R)-1-hydroxy-2-[[(1R)-2-(4-methoxyphenyl)-1-methylethyl]amino]ethyl]-2(1H)-quinolinone hydrochloride], in data set [2], the chemical stability entry was “improved”.

The values are drawn from patent publication US20060193785A1, “Pharmaceutical aerosol formulations for pressurized metered dose inhalers comprising a sequestering agent” (priority 2005, published 2006).
